From patent US20040077563A1, “Methods of drug delivery to hepatocytes and treatment of flaviviridae infections” (priority 2003, published 2004)

Assays:
[1] = system: Hep3B, HepG2 & Huh7 cell lines; experiment: Uptake of [3H]-labeled nucleosides by different human liver cell lines; assay type: cell-based; conditions: for nucleoside uptake into hepatocytes (radioactivity in the cell lysate): Hep3B, HepG2, Huh7, 20 μCi/ml [3H]-nucleoside plus 10 μM cold nucleoside, 4 hr at 37° C, FIG. 1
Method: In order to determine whether Ribavirin and Viramidine™ use a similar mode of entry in human hepatocytes, the inventors performed several experiments. First, various strains of hepatocytes (Hep3B, HepG2, and Huh7) were incubated with various nucleotide analogs (e.g., Ribavirin, Levovirin (the L-isomer of Ribavirin), and Viramidine™), and the result of the nucleoside uptake experiments are illustrated in FIG. 1.
Hep3B, HepG2 & Huh7 cell lines were used at a concentration of 50,000 cells/well in a 24-wells plate, and incubated with [^3H]-labeled Ribavirin, Levovirin™, and Viramidine™ (20 μCi/ml) plus 10 μM cold nucleoside for 4 hr at 37° C. The cells were washed with PBS and lysed, and the radioactivity in the cell lysate (i.e.the amount of labeled nucleoside taken up by the cells) was determined in a scintillation counter.

[2] = system: HepG2 cells; experiment: Nucleoside competition assay; assay type: cell-based, human; conditions: cold competitor 0, 100 μM, 500 μM, 2 mM, 2 hrs at 37° C
Method: To address this question, the inventors performed uptake competition experiments in which radiolabeled Ribavirin or Viramidine™ competed for uptake with unlabeled Viramidine™ or Ribavirin, respectively.
50,000 HepG2 cells/well were placed in a 24-wells plate and incubated with [3H]-labeled nucleoside (20 μCi/ml). Competition was performed with increasing concentrations of cold (0, 100 μM, 500 μM, and 2 mM) competitor nucleoside. Incubation time was 2 hrs at 37° C. The cells were then washed with PBS and lysed. The radioactivity in the cell lysate (i.e. the amount of labeled nucleoside taken up by the cells) was determined in a scintillation counter.

[3] = system: erythrocytes; conditions: stated as known for Ribavirin; cited from earlier work
[4] = system: flaviviridae; experiment: Inhibition of growth of flaviviridae in a cell containing medium; assay type: cell-based; conditions: added to a cell-containing medium; data not shown
Excerpt: The family of flaviviridae has recently gained special attention due to several occurrences of West Nile Virus encephalitis in the eastern part of the USA, resulting in at least 7 reported deaths and at least 62 cases of severe disease. Moreover, hepatitis C-like viruses (and the HCV virus) also belong to the family of flaviviridae, further adding to the significance of flaviviridae with respect to public and private health. While not wishing to be bound by a particular theory or hypothesis, it is contemplated that increased transport of Viramidine™*HCl is particularly beneficial for treatment of flaviridae-virus infections.

[5] = Water solubility; assay type: physicochemical
Excerpt: It is contemplated that Viramidine™*HCl (in either D- or L-configuration) will be administered in any appropriate pharmaceutical formulation, and under any appropriate protocol. Thus, administration may take place orally, parenterally (including subcutaneous injections, intravenous, intramuscularly, by intrasternal injection or infusion techniques), by inhalation spray, or rectally, topically and so forth, and in dosage unit formulations containing conventional non-toxic pharmaceutically acceptable carriers, adjuvants and vehicles. By way of example, it is contemplated that Viramidine™*HCl can be formulated in admixture with a pharmaceutically acceptable carrier. For example, Viramidine™*HCl can be administered orally as pharmacologically acceptable salts. […] Conventional buffers such as phosphates, bicarbonates or citrates can be used for this purpose. Of course, one of ordinary skill in the art may modify the formulations within the teachings of the specification to provide numerous formulations for a particular route of administration without rendering Viramidine™*HCl unstable or compromising their therapeutic activity. In particular, the modification of Viramidine™*HCl to render it more soluble in water or another vehicle, for example, may be easily accomplished by minor modifications (salt formulation, esterification, etc.) that are well within the ordinary skill in the art. […]

[6] = system: erythrocytes; experiment: Uptake into erythrocytes; assay type: cell-based; conditions: data not shown
Excerpt: Thus, it should be appreciated that toxicity of a nucleoside or nucleotide compound can be reduced by modifying the compound to include a carboxamidine moiety or modified carboxamidine moiety as described above, wherein target cells for modified compounds include a transporter system, which non-target cells lack. […] It is contemplated that this difference in uptake is attributable to the lack of a Viramidine™ uptake and/or transporter system.

[7] = system: deaminase/deamidase activity in hepatocytes; experiment: Conversion of carboxamidine to carboxamide in the liver; assay type: in vitro ADME; conditions: unpublished results
Excerpt: Therefore, it is contemplated that by including a carboxamidine group to a molecule and exploiting the relatively high deaminase/deamidase acitivity of hepatocytes, molecules may be specifically targeted to the liver. With respect to contemplated molecules having a —C(NR1)(NR2R3) it should be appreciated that various deaminase/deamidase acitivities of hepatocytes are sufficiently high to convert such compounds from a prodrug form into an active drug form (e.g., drug activity is increased when carboxamide group is present).

NC(=O)c1ncn([C@H]2O[C@@H](CO)[C@H](O)[C@@H]2O)n1 [Levovirin, reference compound]
nucleoside uptake into hepatocytes (radioactivity in the cell lysate) [1]: taken up into all of the tested hepatocytes

NC(=O)c1ncn([C@@H]2O[C@H](CO)[C@@H](O)[C@H]2O)n1 [Ribavirin, 1-beta-D-ribofuranosyl-1,2,4-triazole-3-carboxamide, reference compound]
nucleoside uptake into hepatocytes (radioactivity in the cell lysate) [1]: more efficiently taken up over the L-isomer of Ribavirin
competition of [3H]-Viramidine uptake by unlabeled competitor ([2]; FIG. 3): at least partial competition
uptake into erythrocytes (background statement) [3]: readily taken up by erythrocytes

Cl.N=C(N)c1ncn([C@@H]2O[C@H](CO)[C@@H](O)[C@H]2O)n1 [Viramidine™*HCl, 1-beta-D-ribofuranosyl-1,2,4-triazole-3-carboxamidine*HCl]
inhibition of growth of flaviviridae [4]: can be inhibited
water solubility [5]: mostly water soluble

N=C(N)c1ncn([C@@H]2O[C@H](CO)[C@@H](O)[C@H]2O)n1 [Viramidine™, 1-beta-D-ribofuranosyl-1,2,4-triazole-3-carboxamidine]
nucleoside uptake into hepatocytes (radioactivity in the cell lysate) [1]: taken up to a significantly higher degree in all three cell lines
rate of uptake into, and overall concentration in, hepatocytes as compared to Ribavirin ([1]; hepatocytes): significantly higher
competition of [3H]-Ribavirin uptake by unlabeled competitor ([2]; FIG. 2): at least partial competition
uptake into erythrocytes [6]: not taken up into erythrocytes
conversion in the liver [7]: converted in the liver to Ribavirin
